Data set [1] relates to healthy donor CD34+ cells (cord blood, bone marrow). Nature of the data set: Methylcellulose colony formation assay (healthy donor cells). The format is cell-based, human. Conditions: for colony forming capacity of wildtype CD34+ cells (total colony output): inhibitor 10 mM (so in the source) in combination with CXCL8 10 ng/mL, FIG. 6F. As for the experimental part:
(§1) Reagents, CXCR1/2 inhibitors Reparixin and Ladarixin were from MedChemTronica and Clinisciences, respectively, dissolved in dimethylsulfoxide (DMSO). Stem cell factor recombinant (SCF), interleukin-3 recombinant (IL-3), thrombopoietin recombinant (TPO), Fms-like tyrosine kinase 3 recombinant (FLT-3) and Interleukin 8 (IL-8 or CXCL8) were from Peprotech.
(§2) CD34^+ cultures, CD34^+ cells were cultured for 72 h at 1×10^5 cells/ml in complete MEM-alpha medium, SCF (50 ng/mL), IL-3 (10 ng/mL), TPO (10 ng/mL) and FLT-3 (50 ng/mL […]), to which CXCL8 was added in a 37° C. incubator with 5% CO2. Cells were counted after Trypan blue staining. For methylcellulose assays, CD34+ cells were plated in duplicate, at 500 cells with 1 mL complete methylcellulose (MethoCult™ H4034 Optimum, Stem cell) with indicated doses of CXCL8. Colonies were enumerated and phenotyped at day 14.

In data set [2] the test system is neutrophil-dependent airway inflammation. Conditions: mice; cited from earlier work.
The test system of a further data set is uveal melanoma. Conditions: animal model of uveal melanoma; cited from earlier work.
In data set [3] the test system is wildtype CD34+ cells (cord blood, healthy donor bone marrow). Nature of the data set: CD34+ liquid culture, cell output/proliferation (healthy donor cells). The format is cell-based, human. The note with it: for proliferation of wildtype CD34+ cells in liquid culture: inhibitor 10 uM in combination with CXCL8 10 ng/mL, FIG. 12E. The procedure: as §1, §2
In data set [4] the test system is pancreatic ductal adenocarcinoma (PDAC). The note with it: cited from earlier work.
Data set [5] relates to CMML CD34+ cells. Nature of the data set: CD34+ liquid culture, cell output/proliferation (CMML cells). The format is cell-based, human. The note with it: liquid culture with CXCL8. As for the experimental part: as §2
The subject of data set [6] is CMML CD34+ cells. The experiment in a line: Methylcellulose colony formation assay (CMML cells). The note with it: methylcellulose with CXCL8. The format is cell-based, human. As for the experimental part: as §2
Data set [7] deals with ischemia-reperfusion injury. Conditions: clinical studies; cited from earlier work.
Data set [8] deals with thyroid cancer tumor cells. Conditions: in vitro; cited from earlier work.
Data set [9] has as its system triple negative breast cancer. Conditions: phase II, in combination with paclitaxel; cited from earlier work.
Data set [10] relates to HER-2 negative metastatic breast cancer. The note with it: phase I, in combination with paclitaxel chemotherapy; cited from earlier work.
The test system of a further data set is CXCR1 and CXCR2. The note with it: CXCR1 over CXCR2; cited from earlier work.

Entries after “also recorded” stand apart in the source; their conditions may differ.

On to `C[C@@H](C(=O)NS(C)(=O)=O)c1ccc(OS(=O)(=O)C(F)(F)F)cc1` [ladarixin, 4-[(2 R)-1-oxo-1-(methanesulfonamido)propan-2-yl]phenyl trifluoromethanesulfonate], for which, in data set [1], the “colony forming capacity of wildtype CD34+ cells (total colony output)” value is “restored”. Further, in data set [2], the neutrophil-dependent airway inflammation entry is reported as “improves neutrophil-dependent airway inflammation”. Also, in the data set on uveal melanoma, the TAM polarization result is recorded as “repolarized TAMs to a M1 phenotype” and the tumor cell migration entry is given as “inhibited tumor cell migration”. Further, in data set [3], the “proliferation of wildtype CD34+ cells in liquid culture” value is reported as “restored”. In [4] (mouse PDAC model, ladarixin combined with an anti-PD-1 monoclonal antibody), the “antitumor activity of combination” value was “improved antitumor activity compared to either agent alone”. Moreover, the “activity in PDAC model” value in data set [4] (mouse model, ladarixin) is reported as “significant activity”.

Take “CXCL8: Interleukin 8 (IL-8 or CXCL8) chemokine from Peprotech, added to CD34+ cultures”: the “colony number / colony forming capacity of healthy cord blood or bone marrow CD34+ cells” value in data set [1] (14 days, CXCL8, CFU-GM and CFU-E affected, FIG. 6B, 6F) is on record as “decrease in colony number; also recorded: decreased colony forming capacity”. The “cord blood CD34+ cell proliferation” value in data set [3] (liquid culture with indicated doses of CXCL8, FIG. 6A) is listed as “dose-dependent inhibition”. For the same compound, in [3] (liquid culture, CXCL8 10 ng/mL, 72 hours, FIG. 12A, 12E), the “adult healthy donor bone marrow CD34+ cell proliferation” value was “decreased”. The “CMML CD34+ cell proliferation” value with CMML CD34+ cells [5] is “failed to inhibit”. Further, the “CMML CD34+ cell proliferation in colony formation assays” value in the data set with CMML CD34+ cells [6] was “not affected”.

`CC(C)Cc1ccc([C@@H](C)C(=O)NS(C)(=O)=O)cc1` [reparixin, R-(−)-2-(4-isobutylphenyl)propionyl methansulfonamide]: in data set [7], the “neutrophil recruitment and inflammatory injury in ischemia-reperfusion” value is “effectively regulate neutrophil recruitment and attenuate inflammatory injury”. For the same compound, in data set [1] (IGRAN supernatant plus reparixin 10 mM (so in the source), FIG. 6G), the “healthy donor CD34+ colony formation in presence of IGRAN supernatant” value is “blocked the inhibitory effects of this supernatant”. The “colony forming capacity of wildtype CD34+ cells (total colony output)” value in data set [1] was “restored”. For the same compound, the “direct anti-tumor activity, tumor cell proliferation” value in data set [8] is “inhibiting tumor cell proliferation”. Further, the “proliferation of wildtype CD34+ cells in liquid culture” value in data set [3] was “restored”. Moreover, in data set [9], the “clinical benefit compared to paclitaxel alone” value was “no additional clinical benefit”. The tolerability entry in data set [10] is listed as “well tolerated”. In addition, in the data set with CXCR1 and CXCR2, the “potency to inhibit CXCR1 activity relative to CXCR2” value is listed as 400 fold.
